From PubChem BioAssay AID2060611 (Molecular Pharmacology Branch, DTP, NCI, 2025)
“And” between values parts separate entries of the source, which are not always exact repeats. Identical values can stand only once.

Tested on: 628569-122-R-J1-PDC complex spheroid viability
Experiment: Anticancer human tumor 628569-122-R-J1-PDC patient-derived head and neck squamous carcinoma cell line growth inhibition [CLK]
Conditions: for viability, T/C: stronger effect = lower value
From the text: A high-throughput screen of multi-cell type tumor spheroids was designed to identify active combinations of […] and targeted small molecules. Complex spheroids include a stromal component modeled by human endothelial cells (HUVEC) and fibroblasts modeled by human mesenchymal stem cells (MSCs). The concentration ranges selected for each drug and investigational agent were based upon clinically achievable concentrations if the clinical Cmax of the agent was known.
Compounds. The drugs and investigational agents: cirtuvivint (SM08502; NSC835563), CC-671 (NSC850746), vemurafenib (NSC761431), tapotoclax (NSC804041), sotorasib (NSC818433), adagrasib (NSC831453), MRTX-1133 (NSC836407), BAY2416964 (NSC825713), copanlisib (NSC816437), inavolisib (NSC800729), abemaciclib (NSC768073), osimertinib (NSC779217), entinostat (NSC756642), eltanexor (KPT-8602, NSC794443), venetoclax (NSC766270), ceralasertib (NSC777638), bortezomib (NSC756655), olaparib (NSC753686), talazoparib (NSC767125), alisertib (NSC759677), peposertib (NSC802822), gemcitabine (NSC613327), 5-fluorouracil (NSC19893), SN-38 (NSC673596), oxaliplatin (NSC266046), paclitaxel (NSC125973), and doxorubicin (NSC123127), were obtained from the National Cancer Institute (NCI) Developmental Therapeutics Program Chemical Repository. The FDA-approved anticancer drug set is available from the Developmental Therapeutics Program at https://dtp.cancer.gov/organization/dscb/obtaining/available plates.htm. […] The stock solutions were prepared in dimethyl sulfoxide (DMSO, Sigma-Aldrich, St. Louis, MO, cat. D2650), except for the platinum complexes which were prepared in saline (Quality Biological, Gaithersburg, MD, cat. 114-055-101), at 800-fold the tested concentration and stored at -70 degrees C prior to their use. All drugs and investigational agents were tested over a range starting from a high concentration at or near the clinical Cmax and decreasing in half-log increments. If the clinical Cmax for an agent had not been determined, the highest concentration tested was 10 microM.
Cell Culture. All cells were maintained in an incubator at 37 degrees C and 5% CO2 with 95% humidity. The PDC lines were cultured according to standard operating procedures established by the NCI PDMR. Briefly, all PDCs were thawed and cultured in Matrigel-coated flasks prepared with a working solution of 1X Ham's F-12 nutrient mix, without supplementation (Invitrogen, Waltham, MA, cat. 11765054), 100 U/mL penicillin-streptomycin (Invitrogen, cat. 15140122), and 2.5% Matrigel (Corning Inc., Corning, NY, cat. 354248) for the first three passages. The 947758-054-R-J2-PDC line was cultured in 6B/Colon 1A media, which includes advanced DMEM/F-12 (Thermo Fisher Scientific, cat. 12634028), 10 mM HEPES (Thermo Fisher Scientific, cat. 15630080), 1X GlutaMAX supplement (Thermo Fisher Scientific, cat. 35050061), 0.1 mg/mL primocin (InvivoGen, cat. ant-pm-2), 10% defined fetal bovine serum, heat inactivated (HyClone Laboratories Inc., cat. SH30070.03HI), 1.25 mM N-Acetyl-L-cysteine (Sigma-Aldrich, cat. A9165), 10 mM nicotinamide (Sigma-Aldrich, cat. N0636), 1X B-27 supplement (Thermo Fisher Scientific, cat. 17504044), 1X N-2 supplement (Thermo Fisher Scientific, cat. 17502048), and 10 microM Y-27632 dihydrochloride (Tocris Bioscience, cat. 1254). The 876862-298-R-J1-PDC was cultured in 6E media, which includes all 6B/Colon 1A media components plus 50% L-WRN conditioned media (ATCC, cat. CRL-3276), 50 ng/mL recombinant human EGF recombinant protein (hEGF; Thermo Fisher Scientific, cat. PHG0311), 10 ng/mL recombinant human fibroblast growth factor 10 (hGFG-10; PeproTech, cat. 100-26), 1 ng/mL recombinant human fibroblast growth factor 2 (hFGF-2; PeproTech, cat. 100-18B), and 1 µM prostaglandin E2 (PGE2; Tocris, cat. 2296). The 227483-062-R1-J1-PDC line was cultured in Panc media, containing all 6E components except hFGF-2, with the addition of 500 nM SB-431542 (Selleckchem, cat. S1067) and 10 nM gastrin (Tocris, cat. 3006). […]

[1] = curve of first compound, second compound 0.0316 µM
[2] = curve of first compound, second compound 0.1 µM
[3] = curve of first compound, second compound 0.316 µM
[4] = curve of first compound, second compound 1 µM
[5] = curve of first compound, second compound 3.16 µM
[6] = curve of first compound, second compound 10 µM
[7] = second compound 0.0316 µM, first compound 0.0316 µM
[8] = second compound 0.0316 µM, first compound 0.1 µM
[9] = second compound 0.0316 µM, first compound 0.316 µM
[10] = second compound 0.0316 µM, first compound 1 µM
[11] = second compound 0.0316 µM, first compound 3.16 µM
[12] = second compound 0.0316 µM, first compound 10 µM
[13] = second compound 0.1 µM, first compound 0.0316 µM
[14] = second compound 0.1 µM, first compound 0.1 µM
[15] = second compound 0.1 µM, first compound 0.316 µM
[16] = second compound 0.1 µM, first compound 1 µM
[17] = second compound 0.1 µM, first compound 3.16 µM
[18] = second compound 0.1 µM, first compound 10 µM
[19] = second compound 0.316 µM, first compound 0.0316 µM
[20] = second compound 0.316 µM, first compound 0.1 µM
[21] = second compound 0.316 µM, first compound 0.316 µM
[22] = second compound 0.316 µM, first compound 1 µM
[23] = second compound 0.316 µM, first compound 3.16 µM
[24] = second compound 0.316 µM, first compound 10 µM
[25] = second compound 1 µM, first compound 0.0316 µM
[26] = second compound 1 µM, first compound 0.1 µM
[27] = second compound 1 µM, first compound 0.316 µM
[28] = second compound 1 µM, first compound 1 µM
[29] = second compound 1 µM, first compound 3.16 µM
[30] = second compound 1 µM, first compound 10 µM
[31] = second compound 3.16 µM, first compound 0.0316 µM
[32] = second compound 3.16 µM, first compound 0.1 µM
[33] = second compound 3.16 µM, first compound 0.316 µM
[34] = second compound 3.16 µM, first compound 1 µM
[35] = second compound 3.16 µM, first compound 3.16 µM
[36] = second compound 3.16 µM, first compound 10 µM
[37] = second compound 10 µM, first compound 0.0316 µM
[38] = second compound 10 µM, first compound 0.1 µM
[39] = second compound 10 µM, first compound 0.316 µM
[40] = second compound 10 µM, first compound 1 µM
[41] = second compound 10 µM, first compound 3.16 µM
[42] = second compound 10 µM, first compound 10 µM
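Also: spheroids exposed to agents for seven days before readout.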
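For viability, T/C in this document: 100% = DMSO vehicle control viability.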

Q: How did the viability, T/C (compound 0.0316 µM) turn out when COc1cccc2c1C(=O)c1c(O)c3c(c(O)c1C2=O)CC(O)(C(=O)CO)CC3OC1CC(N)C(O)C(C)O1 (configuration not stated) was run?
A: 79.4% and 65.2%

Q: And the viability, T/C (compound 0.1 µM)?
A: 51.3% and 43.7%

Q: And the viability, T/C (compound 0.316 µM)?
A: 107% and 88.3%

Q: And the viability, T/C (compound 1 µM)?
A: 31.9% and 12.3%

Q: And the viability, T/C (compound 3.16 µM)?
A: 12.3% and 14.2%

Q: What about the viability, T/C (compound 10 µM) of the same molecule?
A: 4.08% and 10.9%

Q: What about the IC50 (curve of compound) of the same molecule?
A: 644 nM and 445 nM

Q: Which results are given for C=C(F)C(=O)N1CCN(c2nc(OCC3CCCN3C)nc3c2CCN(c2cccc4cccc(Cl)c24)C3)CC1CC#N (configuration not stated) + CNC(=O)c1ccc(Nc2nc(OC3CCCC3)c3c(-c4ccc5nc(C)oc5c4)c[nH]c3n2)c(OC)c1?
A: IC50 [1]: 5890 nM; IC50 [2]: 4250 nM; IC50 [3]: 3640 nM; IC50 [4]: 31.6 nM; IC50 [5]: < 31.6 nM; IC50 [6]: < 31.6 nM; viability, T/C [7]: 84.5%; viability, T/C [8]: 85.8%; viability, T/C [9]: 88.8%; viability, T/C [10]: 112%; viability, T/C [11]: 126%; viability, T/C [12]: 8.03%; viability, T/C [13]: 58.8%; viability, T/C [14]: 53.8%; viability, T/C [15]: 65.5%; viability, T/C [16]: 64%; viability, T/C [17]: 90.2%; viability, T/C [18]: 1.94%; viability, T/C [19]: 54.6%; viability, T/C [20]: 47.9%; viability, T/C [21]: 49.3%; viability, T/C [22]: 56.3%; viability, T/C [23]: 72.1%; viability, T/C [24]: 6.63%; viability, T/C [25]: 46.5%; viability, T/C [26]: 42.9%; viability, T/C [27]: 43.7%; viability, T/C [28]: 49%; viability, T/C [29]: 62.8%; viability, T/C [30]: 1.4%; viability, T/C [31]: 46.2%; viability, T/C [32]: 43.3%; viability, T/C [33]: 45.4%; viability, T/C [34]: 51.5%; viability, T/C [35]: 48.1%; viability, T/C [36]: 0.86%; viability, T/C [37]: 53.9%; viability, T/C [38]: 36.1%; viability, T/C [39]: 46.7%; viability, T/C [40]: 54.5%; viability, T/C [41]: 43.8%; viability, T/C [42]: 5.33%

Q: COc1c(OCCCN2CCOCC2)ccc2c3n(c(=NC(=O)c4cnc(N)nc4)nc12)CCN3 was tested. Which viability, T/C (compound 0.00316 µM) did it give?
A: 79.2% and 77.8%

Q: What about the viability, T/C (compound 0.01 µM) of the same molecule?
A: 61.3% and 39.7%

Q: And the viability, T/C (compound 0.0316 µM)?
A: 33.9% and 37.7%

Q: What about the viability, T/C (compound 0.1 µM) of the same molecule?
A: 21.9% and 23.6%

Q: And the viability, T/C (compound 0.316 µM)?
A: 15.5% and 12.8%

Q: And the viability, T/C (compound 1 µM)?
A: 4.99% and 10.7%

Q: And the IC50 (curve of compound)?
A: 16 nM and 9.1 nM

Q: Which viability, T/C (compound 0.000949 µM) does the source give for CC(C)CC(NC(=O)C(Cc1ccccc1)NC(=O)c1cnccn1)B(O)O (configuration not stated) here?
A: 86.3% and 91.7%

Q: What about the viability, T/C (compound 0.003 µM) of the same molecule?
A: 68% and 73.5%

Q: And the viability, T/C (compound 0.00949 µM)?
A: 16.2% and 14.8%

Q: And the viability, T/C (compound 0.03 µM)?
A: 8.01% and 3.1%

Q: What about the viability, T/C (compound 0.0949 µM) of the same molecule?
A: 7.3% and 7.41%

Q: And the viability, T/C (compound 0.3 µM)?
A: 6.04% and 11.3%

Q: And the IC50 (curve of compound)?
A: 4.47 nM and 4.75 nM

Q: What does the source list for COc1ccc([C@@H](O)c2cc(-c3ncnc4cc(N5CCOCC5)ccc34)c(F)cc2Cl)nn1 + CN1CCN(c2cc(C(=O)Nc3cc4cc(-c5cnn(C)c5)ccc4cn3)ccn2)CC1?
A: IC50 [1]: 2100 nM; IC50 [2]: 314 nM; IC50 [3]: < 31.6 nM; IC50 [4]: < 31.6 nM; IC50 [5]: < 31.6 nM; IC50 [6]: < 31.6 nM; viability, T/C [7]: 95.9%; viability, T/C [8]: 88.2%; viability, T/C [9]: 68.8%; viability, T/C [10]: 71.6%; viability, T/C [11]: 37.3%; viability, T/C [12]: 27.3%; viability, T/C [13]: 86.9%; viability, T/C [14]: 61.7%; viability, T/C [15]: 48.8%; viability, T/C [16]: 42.6%; viability, T/C [17]: 34.5%; viability, T/C [18]: 22.8%; viability, T/C [19]: 27.4%; viability, T/C [20]: 22.6%; viability, T/C [21]: 21.3%; viability, T/C [22]: 15.6%; viability, T/C [23]: 13.4%; viability, T/C [24]: 7.64%; viability, T/C [25]: 5.08%; viability, T/C [26]: 4.84%; viability, T/C [27]: 10.1%; viability, T/C [28]: 7.13%; viability, T/C [29]: 6.18%; viability, T/C [30]: 5.7%; viability, T/C [31]: 7.69%; viability, T/C [32]: 7.5%; viability, T/C [33]: 9.02%; viability, T/C [34]: 9.74%; viability, T/C [35]: 6.25%; viability, T/C [36]: 6.05%; viability, T/C [37]: 2.13%; viability, T/C [38]: 3.81%; viability, T/C [39]: 3.72%; viability, T/C [40]: 1.54%; viability, T/C [41]: 2.76%; viability, T/C [42]: 1%

Q: What does the source list for Nc1ccn(C2OC(CO)C(O)C2(F)F)c(=O)n1 (configuration not stated)?
A: viability, T/C (compound 0.0316 µM): 56.4% and 64.8%; viability, T/C (compound 0.1 µM): 48.9% and 39.6%; viability, T/C (compound 0.316 µM): 59% and 51.7%; viability, T/C (compound 1 µM): 42.4% and 32.9%; viability, T/C (compound 3.16 µM): 49.2% and 40.4%; viability, T/C (compound 10 µM): 45.5% and 42%; IC50 (curve of compound): 626 nM and 65.4 nM
